Experimental data reported in patent US20020169264A1, “Polymers incorporating peptides” (The Council of the Queensland Institute of Medical Research, priority 1997, published 2002).
Where two headings read alike, the source gives them in different places. Where no end group is shown, it is not given here. The star is where a group is joined. Acryloyl = C=CC(=O)*; Ahx = NCCCCCC(=O)O

Key:
lymph node T cells = assay: T cell proliferation assay, peptide monomer-primed lymph node T cells; assay type: cell-based, mice; conditions: FIG. 10
Excerpt: Lymph node T cells were derived from pooled inguinal and popliteal lymph node cell suspensions of mice primed seven days previously with peptide. T cells were enriched by passage through nylon wool columns^24.
(§1) Female Balb/c mice, 6 to 8 weeks of age, were used. For antibody studies, animals were inoculated i.p. with synthetic peptide in monomeric or polymeric form and emulsified in complete Freund's adjuvant (CFA). Mice received 5 or 0.5 nmoles of monomeric peptide or the equivalent number of moles of determinant within a polymer. For T-cell studies, mice were inoculated s.c. in the hind footpads with a total of 10 nmoles of T-cell determinant in CFA.
T cells were cultured (at a concentration of 3×10^5 cells/well for lymph node T cells and 1×10^4/well for the T-cell clone) in 96-well nmicrotitre trays (Nunc, Denmark) in the presence of syngenic γ-irradiated (2,200 R, ^60Co source) spleen cells as a source of antigen presenting cells, together with antigen in a total volume of 250μl^22, 23, The culture medium was RPMI 1640 supplemented with 10% heat inactivated (56° C., 30min) fetal calf serum, 2mM glutamine, 2mM sodium pyruvate, 0.1mM 2-mercaptoethanol, 30μg/ml gentamicin, 100 I.U./ml penicillin and 100μg/ml streptomycin. […] Cells were then harvested onto glass fibre filters and incorporation of ^3H-thymidine was measured on a Hewlett Packard Matrix 9600 direct β-counter.

Balb/c mice = assay: Immunogenicity in Balb/c mice, antibody titre by ELISA; assay type: in vivo; conditions: for antibody response (levels of antibody elicited): 0.5 nmole dose, FIG. 11B
Excerpt: as §1
Enzyme-linked immunosorbent assays (ELISAs) were performed as described^23 using microtitre plates coated with a solution of 5μg/ml peptide or polymer antigen. Bound antibody was detected by incubation with horseradish peroxidase-conjugated rabbit immunoglobulin (Ig) directed against mouse Ig (DAKO, Denmark) for 1.5h followed, after washing, with substrate (0.2mM 2,2′-azino-bis 3-ethylbenzthiazoline-sulphonic acid in 50mM citric acid pH4.0 containing 0.004% v/v hydrogen peroxide). The absorbance at a wavelength of 405nm was determined using a Labsystems Multiscan Multisoft microplate reader (Pathtech Diagnostics Pty. Ltd., Aust.) and antibody titres were expressed as the reciprocal of the antibody dilution giving an absorbance of 0.25, which corresponds to at least five times the background value.

MAb 2/1 = assay: ELISA, MAb 2/1 binding to coated peptide or polymer; set-up: species or system mouse
MAb 1/1 = assay: ELISA, MAb 1/1 binding to coated peptide or polymer; set-up: species or system mouse; conditions: persulphate to peptide ratios 0.1:1 to 1,000:1, in the presence of acrylamide; FIG. 8
[1] = tested on: virus infected P815 mastocytoma cells; assay type: in vivo, BALB/c mice

Substance: ALNNRFQIKGVELKS [P3]
- recognition by polyclonal lymph node T cells raised against monomeric T-cell determinant peptide (lymph node T cells): equal efficiency

Substance: GMRNVPERKQT [P2]
- antibody response (levels of antibody elicited) (Balb/c mice): no antibody

Substance: PKYVKQNTLKLATGMRNVPEKQT [P5]
- antigenic activity (MAb 2/1 binding) after exposure to ammonium persulphate (MAb 2/1; persulphate to peptide ratios 0.1:1 to 1,000:1, in the presence of acrylamide, FIG. 8): little or no effect on antigenic activity
- antigenic activity (MAb 1/1 binding) after exposure to ammonium persulphate (MAb 1/1): little or no effect on antigenic activity
- primary antibody response (Balb/c mice; 5 nmoles of peptide epitope, i.p. in CFA): very weak
- rise of antibody response following the second inoculation (Balb/c mice; 5 nmoles of peptide epitope, secondary vs primary): ~10 fold

Substance: TLKLATG [P1]
- binding of MAb 2/1 to coated polymers (MAb 2/1; FIG. 9): slightly reduced ability to interact with MAb
- antibody response (levels of antibody elicited) (Balb/c mice): no antibody

Substance: TYQRTRALV [P7]
- CTL response (priming) ([1]; mouse, in vivo, sc): did

Substance: acryloyl-Ahx-CTL: acryloyl-Ahx derivative of the CTL epitope TYQRTRALV, not polymerised ({Acryloyl-Ahx}-TYQRTRALV)
- CTL response (priming) ([1]; 10 μg peptide s.c. in CFA, virus infected targets, FIG. 15): did not induce a CTL response
